Results: the NIST ThermoML archive (doi:10.1016/j.jct.2014.01.006)
± gives the expanded uncertainty stated by the source.

Tests used:
[1] = Molar enthalpy of transition or fusion; conditions: Crystal; Adiabatic calorimetry
[2] = for molar entropy: Vacuum adiabatic calorimetry; for mass density: Vibrating tube method; for vapor or sublimation pressure: Ebulliometric method (Recirculating still)
[3] = molar heat capacity at saturation pressure; conditions: Crystal, Vacuum adiabatic calorimetry

c1ccc(-c2cccc3ccccc23)cc1 [1-phenylnaphthalene]
Conditions	Molar enthalpy of transition or fusion [kcal/mol]
[1]	3.716 ± 0.00406

[2]
Conditions	Glass transition temperature [°C]	Triple point temperature [K]	mass density [kg/m3]	molar entropy [J/K/mol]	vapor or sublimation pressure [kPa]
5 K, Crystal	–	–	–	0.1746 ± 0.017	–
10 K, Crystal	–	–	–	1.372 ± 0.025	–
20 K, Crystal	–	–	–	7.849 ± 0.083	–
30 K, Crystal	–	–	–	17.67 ± 0.16	–
40 K, Crystal	–	–	–	28.64 ± 0.12	–
50 K, Crystal	–	–	–	39.72 ± 0.14	–
60 K, Crystal	–	–	–	50.49 ± 0.17	–
70 K, Crystal	–	–	–	60.84 ± 0.19	–
80 K, Crystal	–	–	–	70.76 ± 0.22	–
90 K, Crystal	–	–	–	80.33 ± 0.32	–
100 K, Crystal	–	–	–	89.56 ± 0.34	–
120 K, Crystal	–	–	–	107.24 ± 0.37	–
140 K, Crystal	–	–	–	124.19 ± 0.39	–
160 K, Crystal	–	–	–	140.69 ± 0.42	–
180 K, Crystal	–	–	–	156.93 ± 0.45	–
200 K, Crystal	–	–	–	173.03 ± 0.47	–
220 K, Crystal	–	–	–	189.11 ± 0.5	–
240 K, Crystal	–	–	–	205.23 ± 0.53	–
260 K, Crystal	–	–	–	221.4 ± 0.56	–
280 K, Crystal	–	–	–	237.64 ± 0.58	–
297.47 K, Crystal	–	–	–	251.92 ± 0.61	–
297.47 K, Liquid	–	–	–	304.2 ± 0.71	–
298.15 K, Liquid	–	–	–	304.91 ± 0.71	–
300 K, Liquid	–	–	–	306.83 ± 0.71	–
320 K, Liquid	–	–	–	327.32 ± 0.75	–
323.14 K, Liquid	–	–	1082.7 ± 1.1	–	–
340 K, Liquid	–	–	–	347.28 ± 0.78	–
348.13 K, Liquid	–	–	1064.6 ± 1.1	–	–
360 K, Liquid	–	–	–	366.78 ± 0.81	–
373.12 K, Liquid	–	–	1045.5 ± 1	–	–
375 K, Liquid	–	–	–	–	0.0218 ± 0.0077
380 K, Liquid	–	–	–	385.86 ± 0.85	–
385 K, Liquid	–	–	–	–	0.0404 ± 0.0077
395 K, Liquid	–	–	–	–	0.0732 ± 0.0078
400 K, Liquid	–	–	–	404.57 ± 0.88	–
405 K, Liquid	–	–	–	–	0.1265 ± 0.0078
415 K, Liquid	–	–	–	–	0.2126 ± 0.0078
420 K, Liquid	–	–	–	422.96 ± 0.91	–
423.11 K, Liquid	–	–	1006.3 ± 1	–	–
425.01 K, Liquid	–	–	–	–	0.3464 ± 0.0078
434.99 K, Liquid	–	–	–	–	0.549 ± 0.0078
440 K, Liquid	–	–	–	441.01 ± 0.95	–
445 K, Liquid	–	–	–	–	0.849 ± 0.0078
448.11 K, Liquid	–	–	986.7 ± 1	–	–
455 K, Liquid	–	–	–	–	1.283 ± 0.0079
460 K, Liquid	–	–	–	458.69 ± 0.98	–
465 K, Liquid	–	–	–	–	1.896 ± 0.008
466.36 K, Liquid	–	–	–	–	2 ± 0.0081
473.11 K, Liquid	–	–	967 ± 1	–	–
475 K, Liquid	–	–	–	–	2.747 ± 0.0082
480 K, Liquid	–	–	–	476.01 ± 1	3.281 ± 0.0084
485.69 K, Liquid	–	–	–	–	4.002 ± 0.0086
494.31 K, Liquid	–	–	–	–	5.336 ± 0.009
498.11 K, Liquid	–	–	945 ± 1	–	–
500 K, Liquid	–	–	–	493.05 ± 1	–
507.13 K, Liquid	–	–	–	–	8.005 ± 0.0097
516.73 K, Liquid	–	–	–	–	10.67 ± 0.011
520 K, Liquid	–	–	–	509.81 ± 1.1	–
523.11 K, Liquid	–	–	921.4 ± 0.9	–	–
524.52 K, Liquid	–	–	–	–	13.34 ± 0.012
532.53 K, Liquid	–	–	–	–	16.64 ± 0.013
539.27 K, Liquid	–	–	–	–	19.93 ± 0.015
540 K, Liquid	–	–	–	526.33 ± 1.1	–
548.1 K, Liquid	–	–	–	–	25.01 ± 0.017
548.11 K, Liquid	–	–	–	–	25.02 ± 0.016
557 K, Liquid	–	–	–	–	31.18 ± 0.019
560 K, Liquid	–	–	–	542.62 ± 1.1	–
565.96 K, Liquid	–	–	–	–	38.57 ± 0.023
574.94 K, Liquid	–	–	–	–	47.36 ± 0.026
580 K, Liquid	–	–	–	558.7 ± 1.2	–
584.02 K, Liquid	–	–	–	–	57.82 ± 0.03
593.13 K, Liquid	–	–	–	–	70.11 ± 0.035
600 K, Liquid	–	–	–	574.57 ± 1.2	–
602.33 K, Liquid	–	–	–	–	84.55 ± 0.041
611.56 K, Liquid	–	–	–	–	101.34 ± 0.05
620 K, Liquid	–	–	–	590.26 ± 1.2	–
620.85 K, Liquid	–	–	–	–	120.8 ± 0.05
630.2 K, Liquid	–	–	–	–	143.27 ± 0.06
640 K, Liquid	–	–	–	605.78 ± 1.2	–
650 K, Liquid	–	–	–	613.47 ± 1.3	–
Crystal, Adiabatic calorimetry	–	297.47 ± 0.039	–	–	–
Glass, Adiabatic calorimetry	-53 ± 1	–	–	–	–

[3]
Conditions	molar heat capacity [J/K/mol]
4.666 K	0.4324 ± 0.017
5 K	0.5238 ± 0.025
5.509 K	0.6901 ± 0.025
6.425 K	1.131 ± 0.042
7.372 K	1.671 ± 0.058
8.352 K	2.37 ± 0.075
9.357 K	3.243 ± 0.1
10 K	3.899 ± 0.042
10.42 K	4.348 ± 0.042
11.58 K	5.512 ± 0.05
12.87 K	7.134 ± 0.058
14.3 K	8.921 ± 0.075
15.89 K	11.19 ± 0.083
17.68 K	13.76 ± 0.1
19.66 K	16.7 ± 0.12
20 K	17.2 ± 0.12
21.86 K	20.01 ± 0.13
24.3 K	23.71 ± 0.15
26.97 K	27.69 ± 0.17
29.93 K	31.88 ± 0.18
30 K	31.97 ± 0.17
33.23 K	36.31 ± 0.091
36.92 K	40.94 ± 0.1
40 K	44.47 ± 0.11
41.05 K	45.63 ± 0.11
45.65 K	50.63 ± 0.12
50 K	54.82 ± 0.12
50.77 K	55.5 ± 0.12
56.48 K	60.59 ± 0.13
57.01 K	60.79 ± 0.13
